Data as given in ChEMBL document CHEMBL5576052, “Design, synthesis, and biological evaluation of new bis-benzylisoquinoline-based analogues as potential neuromuscular blocking agents” (Bioorg Med Chem Lett, 2024).

Experiments:
Assay type in all cases: functional
[1] = tested on: Oryctolagus cuniculus; test: Neuromuscular blocking in rabbit model of propofol-induced anesthesia assessed as duration of time for maximal blockade at 272.7 nmol/kg by train-of-four response method
[2] = tested on: Oryctolagus cuniculus; test: Neuromuscular blocking in rabbit model of propofol-induced anesthesia assessed as time duration of 25 to 90 percent recovery indices at 272.7 nmol/kg by train-of-four response method
[3] = tested on: Oryctolagus cuniculus; test: Neuromuscular blocking in rabbit model of propofol-induced anesthesia assessed as maximal blockade at 272.7 nmol/kg by train-of-four response method relative to control
[4] = tested on: Oryctolagus cuniculus; test: Neuromuscular blocking in rabbit model of propofol-induced anesthesia assessed as time duration of 25 to 75 percent recovery indices at 272.7 nmol/kg by train-of-four response method
[5] = tested on: Oryctolagus cuniculus; test: Neuromuscular blocking in rabbit model of propofol-induced anesthesia assessed as onset time at 272.7 nmol/kg by train-of-four response method
[6] = tested on: Oryctolagus cuniculus; test: Neuromuscular blocking in rabbit model of propofol-induced anesthesia assessed as effective blocking time by measuring duration from administration to 25 percent recovery at 272.7 nmol/kg by train-of-four response method
[7] = tested on: Oryctolagus cuniculus; test: Neuromuscular blocking in rabbit model of propofol-induced anesthesia assessed as maximal blockade at 27.27 nmol/kg by train-of-four response method relative to control
[8] = tested on: Oryctolagus cuniculus; test: Neuromuscular blocking in rabbit model of propofol-induced anesthesia assessed as onset time at 27.27 nmol/kg by train-of-four response method
[9] = tested on: Oryctolagus cuniculus; test: Neuromuscular blocking in rabbit model of propofol-induced anesthesia assessed as time duration of 25 to 75 percent recovery indices at 27.27 nmol/kg by train-of-four response method
[10] = tested on: Oryctolagus cuniculus; test: Neuromuscular blocking in rabbit model of propofol-induced anesthesia assessed as duration of time for maximal blockade at 27.27 nmol/kg by train-of-four response method
[11] = tested on: Oryctolagus cuniculus; test: Neuromuscular blocking in rabbit model of propofol-induced anesthesia assessed as effective blocking time by measuring duration from administration to 25 percent recovery at 27.27 nmol/kg by train-of-four response method
[12] = tested on: Oryctolagus cuniculus; test: Neuromuscular blocking in rabbit model of propofol-induced anesthesia assessed as time duration of 25 to 90 percent recovery indices at 27.27 nmol/kg by train-of-four response method

Row | Compound | Time [1] [min] | Time [2] [min] | Emax at 0.2727 µmol/kg [3] [%] | Time [4] [min] | Time [5] [min] | Time [6] [min] | Emax at 0.02727 µmol/kg [7] [%] | Time [8] [min] | Time [9] [min] | Time [10] [min] | Time [11] [min] | Time [12] [min]
1 | COc1cc2c(cc1OC)[C@@H](Cc1cc(OC)c(OC)c(OC)c1)[N@+](CCCOC(=O)CC/C=C/CCC(=O)OCCC[N@@+]1(CC3CC3)CCc3cc(OC)c(OC)cc3[C@H]1Cc1cc(OC)c(OC)c(OC)c1)(CC1CC1)CC2.[Cl-].[Cl-] | 2.5 | 7.87 | 45 | 5 | 2 |  |  |  |  |  |  | 
2 | CC[N@+]1(CCCOC(=O)CC/C=C/CCC(=O)OCCC[N@@+]2(CC)CCc3cc(OC)c(OC)cc3[C@H]2Cc2cc(OC)c(OC)c(OC)c2)CCc2cc(OC)c(OC)cc2[C@H]1Cc1cc(OC)c(OC)c(OC)c1.[Cl-].[Cl-] | 11.58 | 15.25 | 100 | 10.58 | 1.08 | 14.67 |  |  |  |  |  | 
3 | CC[N+]1(CCCOC(=O)CC/C=C/CCC(=O)OCCC[N+]2(CC)CCc3cc(OC)c(OC)cc3[C@H]2Cc2cc(OC)c(OC)c(OC)c2)CCc2cc(OC)c(OC)cc2[C@H]1Cc1cc(OC)c(OC)c(OC)c1.[Cl-].[Cl-] (stereo not given in full) | 11.75 | 9.67 | 100 | 6.42 | 0.75 | 14 |  |  |  |  |  | 
4 | COc1cc2c(cc1OC)[C@@H](Cc1cc(OC)c(OC)c(OC)c1)[N@+](CCCOC(=O)CC/C=C/CCC(=O)OCCC[N@@+]1(CC3CCC3)CCc3cc(OC)c(OC)cc3[C@H]1Cc1cc(OC)c(OC)c(OC)c1)(CC1CCC1)CC2.[Cl-].[Cl-] | 8.5 | 15.17 | 100 | 8.92 | 2 | 15.38 |  |  |  |  |  | 
5 | COc1cc2c(cc1OC)[C@@H](Cc1cc(OC)c(OC)c(OC)c1)[N+](C)(CCC(=O)OC/C(Br)=C(\Br)COC(=O)CC[N+]1(C)CCc3cc(OC)c(OC)cc3[C@H]1Cc1cc(OC)c(OC)c(OC)c1)CC2.O=S(=O)([O-])c1ccccc1.O=S(=O)([O-])c1ccccc1 (stereo not given in full) | 8.75 | 10.92 | 100 | 6.83 | 1 | 9.75 |  |  |  |  |  | 
6 | COc1cc2c(cc1OC)[C@@H](Cc1cc(OC)c(OC)c(OC)c1)[N+](C)(CCC(=O)OCC(F)(F)COC(=O)CC[N+]1(C)CCc3cc(OC)c(OC)cc3[C@H]1Cc1cc(OC)c(OC)c(OC)c1)CC2 (stereo not given in full) |  |  | 0 |  |  |  |  |  |  |  |  | 
7 | COc1cc2c(cc1OC)[C@@H](Cc1cc(OC)c(OC)c(OC)c1)[N+](C)(CCCOC(=O)CCCC(=O)OCCC[N+]1(C)CCc3cc(OC)c(OC)cc3[C@H]1Cc1cc(OC)c(OC)c(OC)c1)CC2.[Cl-].[Cl-] (stereo not given in full) | 66.5 | 12 | 100 | 7.67 | 0.75 | 73.08 | 100 | 2.58 | 7.75 | 8.08 | 11.67 | 11.77
8 | COc1cc2c(cc1OC)[C@@H](Cc1cc(OC)c(OC)c(OC)c1)[N+](C)(CCC(=O)OCCCCCCOC(=O)CC[N+]1(C)CCc3cc(OC)c(OC)cc3[C@H]1Cc1cc(OC)c(OC)c(OC)c1)CC2.O=S(=O)([O-])c1ccccc1.O=S(=O)([O-])c1ccccc1 (stereo not given in full) | 44.92 | 12.17 | 100 | 9.92 | 1 | 49.83 |  |  |  |  |  | 
9 | C=CC[N@+]1(CCCOC(=O)CC/C=C/CCC(=O)OCCC[N@@+]2(CC=C)CCc3cc(OC)c(OC)cc3[C@H]2Cc2cc(OC)c(OC)c(OC)c2)CCc2cc(OC)c(OC)cc2[C@H]1Cc1cc(OC)c(OC)c(OC)c1.[Cl-].[Cl-] | 4.75 | 21.83 | 100 | 13.25 | 1.42 | 6.92 |  |  |  |  |  | 
10 | COc1cc2c(cc1OC)[C@@H](Cc1cc(OC)c(OC)c(OC)c1)[N+](C)(CCCOC(=O)c1ccccc1-c1ccccc1C(=O)OCCC[N+]1(C)CCc3cc(OC)c(OC)cc3[C@H]1Cc1cc(OC)c(OC)c(OC)c1)CC2 (stereo not given in full) |  |  | 0 |  |  |  |  |  |  |  |  | 
11 | COc1cc2c(cc1OC)[C@@H](Cc1cc(OC)c(OC)c(OC)c1)[N+](C)(CCC(=O)OCC#CC#CCOC(=O)CC[N+]1(C)CCc3cc(OC)c(OC)cc3[C@H]1Cc1cc(OC)c(OC)c(OC)c1)CC2.O=S(=O)([O-])c1ccccc1.O=S(=O)([O-])c1ccccc1 (stereo not given in full) | 4.75 | 12 | 100 | 6.92 | 1.42 | 5.83 |  |  |  |  |  | 
12 | COc1cc2c(cc1OC)[C@@H](Cc1cc(OC)c(OC)c(OC)c1)[N+](C)(CCCOC(=O)CC(C)(C)CC(=O)OCCC[N+]1(C)CCc3cc(OC)c(OC)cc3[C@H]1Cc1cc(OC)c(OC)c(OC)c1)CC2.[Cl-].[Cl-] (stereo not given in full) | 18.75 | 12.58 | 100 | 9.92 | 1.25 | 21.58 |  |  |  |  |  | 
13 | COc1cc2c(cc1OC)[C@@H](Cc1cc(OC)c(OC)c(OC)c1)[N+](C)(CCC(=O)OCCCOC(=O)CC[N+]1(C)CCc3cc(OC)c(OC)cc3[C@H]1Cc1cc(OC)c(OC)c(OC)c1)CC2.O=S(=O)([O-])c1ccccc1.O=S(=O)([O-])c1ccccc1 (stereo not given in full) | 7.58 | 9.83 | 100 | 7.92 | 1.08 | 9.75 |  |  |  |  |  | 
14 | COc1cc2c(cc1OC)[C@@H](Cc1cc(OC)c(OC)c(OC)c1)[N+](C)(CCCOC(=O)Cc1ccc(CC(=O)OCCC[N+]3(C)CCc4cc(OC)c(OC)cc4[C@H]3Cc3cc(OC)c(OC)c(OC)c3)cc1)CC2.[Cl-].[Cl-] (stereo not given in full) | 14.83 | 10.83 | 100 | 8 | 0.92 | 18.08 |  |  |  |  |  | 
15 | COc1cc2c(cc1OC)[C@@H](Cc1cc(OC)c(OC)c(OC)c1)[N+](C)(CCC(=O)OCCCCOC(=O)CC[N+]1(C)CCc3cc(OC)c(OC)cc3[C@H]1Cc1cc(OC)c(OC)c(OC)c1)CC2.O=S(=O)([O-])c1ccccc1.O=S(=O)([O-])c1ccccc1 (stereo not given in full) | 18.58 | 13.67 | 100 | 8.17 | 1.25 | 23.08 |  |  |  |  |  | 
16 | C=CC[N+]1(CCCOC(=O)CC/C=C/CCC(=O)OCCC[N+]2(CC=C)CCc3cc(OC)c(OC)cc3[C@H]2Cc2cc(OC)c(OC)c(OC)c2)CCc2cc(OC)c(OC)cc2[C@H]1Cc1cc(OC)c(OC)c(OC)c1 (stereo not given in full) |  |  | 92 |  |  |  |  |  |  |  |  | 
17 | COc1cc2c(cc1OC)[C@@H](Cc1cc(OC)c(OC)c(OC)c1)[N+](CCCOC(=O)CC/C=C/CCC(=O)OCCC[N+]1(CC3CC3)CCc3cc(OC)c(OC)cc3[C@H]1Cc1cc(OC)c(OC)c(OC)c1)(CC1CC1)CC2.[Cl-].[Cl-] (stereo not given in full) | 3.67 | 9.58 | 100 | 6.83 | 1.25 | 5.17 |  |  |  |  |  | 
18 | COc1cc2c(cc1OC)[C@@H](Cc1cc(OC)c(OC)c(OC)c1)[N+](C)(CCC(=O)OCC#CCOC(=O)CC[N+]1(C)CCc3cc(OC)c(OC)cc3[C@H]1Cc1cc(OC)c(OC)c(OC)c1)CC2 (stereo not given in full) |  |  | 85 |  |  |  |  |  |  |  |  | 
19 | COc1cc2c(cc1OC)[C@@H](Cc1cc(OC)c(OC)c(OC)c1)[N+](C)(CCC(=O)OCC(C)(C)COC(=O)CC[N+]1(C)CCc3cc(OC)c(OC)cc3[C@H]1Cc1cc(OC)c(OC)c(OC)c1)CC2 (stereo not given in full) |  |  | 0 |  |  |  |  |  |  |  |  | 
20 | COc1cc2c(cc1OC)[C@@H](Cc1cc(OC)c(OC)c(OC)c1)[N@@+](C)(CCCOC(=O)CC/C=C/CCC(=O)OCCC[N@@+]1(C)CCc3cc(OC)c(OC)cc3[C@H]1Cc1cc(OC)c(OC)c(OC)c1)CC2 |  |  | 0 |  |  |  |  |  |  |  |  | 
